pIC50: −log10 of the molar value. Activity calls are given as the source filed them. The calls are words filed in the database; no cut-off is given here.
Columns and labels:
[1] = test system: CWR22R; assay: Antiproliferative activity against human 22Rv1 cells assessed as cell growth inhibition incubated for 4 days by celtiter-glo luminescent assay; conditions: 22Rv1, 96 h
[2] = test system: VCaP; assay: Antiproliferative activity against human VCaP cells assessed as cell growth inhibition incubated for 4 days by celtiter-glo luminescent assay; conditions: 96 h
[3] = Clearance in Sprague-Dawley rat at 1 mg/kg, iv measured upto 24 hrs by LC/MS-MS analysis; type: ADME, organism-based; conditions: in vivo
[4] = Half life in Sprague-Dawley rat at 3 mg/kg, po measured upto 24 hrs by LC/MS-MS analysis; type: ADME, organism-based; conditions: in vivo
[5] = AUC in ICR mouse at 3 mg/kg, po measured upto 24 hrs by LC/MS-MS analysis; type: ADME, organism-based; conditions: in vivo
[6] = Metabolic stability in mouse plasma assessed as half life measured upto 120 mins by LC-MS/MS analysis; type: ADME, cell-free
[7] = molecular target: Voltage-gated inwardly rectifying potassium channel KCNH2 (Homo sapiens, UniProt Q12809); assay: Inhibition of hERG expressed in HEK293 cells; type: toxicity, cell-based
Chain of Voltage-gated inwardly rectifying potassium channel KCNH2 (Q12809 whole entry): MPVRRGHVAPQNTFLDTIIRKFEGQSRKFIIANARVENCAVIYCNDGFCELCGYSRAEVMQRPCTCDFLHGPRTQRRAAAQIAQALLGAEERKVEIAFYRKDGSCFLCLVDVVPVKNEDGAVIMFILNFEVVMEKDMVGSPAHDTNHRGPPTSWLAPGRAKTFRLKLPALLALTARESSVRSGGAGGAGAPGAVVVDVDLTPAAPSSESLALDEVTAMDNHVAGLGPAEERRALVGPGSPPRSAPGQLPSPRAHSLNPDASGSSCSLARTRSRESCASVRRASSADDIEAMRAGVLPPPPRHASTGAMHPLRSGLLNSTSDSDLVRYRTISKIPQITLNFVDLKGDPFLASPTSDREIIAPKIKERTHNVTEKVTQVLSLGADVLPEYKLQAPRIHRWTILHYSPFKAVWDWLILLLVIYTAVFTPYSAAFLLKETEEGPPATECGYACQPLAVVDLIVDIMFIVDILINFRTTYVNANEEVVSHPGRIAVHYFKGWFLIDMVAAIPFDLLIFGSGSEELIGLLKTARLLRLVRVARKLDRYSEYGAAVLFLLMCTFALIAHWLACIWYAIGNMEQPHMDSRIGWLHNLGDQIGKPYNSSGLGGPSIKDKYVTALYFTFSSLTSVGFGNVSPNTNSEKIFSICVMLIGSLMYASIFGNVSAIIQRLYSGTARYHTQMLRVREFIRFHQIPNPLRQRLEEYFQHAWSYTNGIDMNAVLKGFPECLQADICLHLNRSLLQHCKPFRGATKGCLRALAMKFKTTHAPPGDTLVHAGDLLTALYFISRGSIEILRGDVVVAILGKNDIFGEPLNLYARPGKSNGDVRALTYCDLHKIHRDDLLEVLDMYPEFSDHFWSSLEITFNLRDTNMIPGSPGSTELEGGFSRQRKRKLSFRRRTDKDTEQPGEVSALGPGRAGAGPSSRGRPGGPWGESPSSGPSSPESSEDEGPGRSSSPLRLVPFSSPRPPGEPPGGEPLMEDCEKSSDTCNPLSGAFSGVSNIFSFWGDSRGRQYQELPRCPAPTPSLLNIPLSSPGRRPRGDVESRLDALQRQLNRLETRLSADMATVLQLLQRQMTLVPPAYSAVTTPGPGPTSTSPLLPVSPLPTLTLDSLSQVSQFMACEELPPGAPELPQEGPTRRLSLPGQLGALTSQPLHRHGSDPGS

[8] = molecular target: T1, Cytochrome P450 1A2 (Homo sapiens, UniProt P05177); assay: Inhibition of CYP1A2 (unknown origin) preincubated with compound for 5 mins followed by NADPH addition and measured after 5 mins by LC-MS/MS analysis; type: ADME
T1 sequence (P05177 whole entry): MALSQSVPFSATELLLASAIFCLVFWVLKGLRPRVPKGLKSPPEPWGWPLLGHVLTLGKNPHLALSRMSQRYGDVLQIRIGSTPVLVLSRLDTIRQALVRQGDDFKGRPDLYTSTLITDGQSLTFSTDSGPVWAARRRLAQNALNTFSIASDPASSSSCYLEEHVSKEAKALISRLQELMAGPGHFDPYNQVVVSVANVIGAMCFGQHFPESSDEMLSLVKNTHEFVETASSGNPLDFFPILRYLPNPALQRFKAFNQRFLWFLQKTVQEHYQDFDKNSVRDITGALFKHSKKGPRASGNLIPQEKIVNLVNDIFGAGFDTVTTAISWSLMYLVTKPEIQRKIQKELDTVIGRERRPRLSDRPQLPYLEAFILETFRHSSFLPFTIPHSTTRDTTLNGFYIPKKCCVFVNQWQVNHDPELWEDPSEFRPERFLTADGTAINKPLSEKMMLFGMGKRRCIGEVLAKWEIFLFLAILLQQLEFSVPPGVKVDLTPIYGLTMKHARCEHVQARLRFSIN

[9] = molecular target: Cytochrome P450 3A4 (Homo sapiens, UniProt P08684); assay: Inhibition of CYP3A4 (unknown origin) using testosterone as substrate preincubated with compound for 5 mins followed by NADPH addition and measured after 20 mins by LC-MS/MS analysis; type: ADME
Chain of Cytochrome P450 3A4 (P08684 whole entry): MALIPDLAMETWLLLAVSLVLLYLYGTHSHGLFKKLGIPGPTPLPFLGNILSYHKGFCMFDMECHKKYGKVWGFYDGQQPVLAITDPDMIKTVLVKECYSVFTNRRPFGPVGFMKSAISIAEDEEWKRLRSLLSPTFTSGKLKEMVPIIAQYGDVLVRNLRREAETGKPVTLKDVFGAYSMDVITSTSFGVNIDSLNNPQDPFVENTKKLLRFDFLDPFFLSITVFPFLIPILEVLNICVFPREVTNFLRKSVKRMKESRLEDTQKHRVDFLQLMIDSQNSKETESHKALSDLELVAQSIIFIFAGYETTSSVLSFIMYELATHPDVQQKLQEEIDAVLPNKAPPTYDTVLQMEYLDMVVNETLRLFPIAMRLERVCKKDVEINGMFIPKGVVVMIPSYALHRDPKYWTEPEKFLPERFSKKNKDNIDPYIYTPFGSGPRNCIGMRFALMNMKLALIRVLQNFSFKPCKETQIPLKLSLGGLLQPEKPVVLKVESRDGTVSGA

[10] = Drug distribution in SCID mouse tumor at 1 mg/kg, po measured at 1 hr by LC-MS/MS analysis; type: ADME, organism-based, Neoplasm; conditions: read-out: Ct
[11] = Drug distribution in SCID mouse liver at 0.3 mg/kg, po measured at 6 hrs by LC-MS/MS analysis; type: ADME, organism-based; conditions: read-out: Ct
[12] = Drug distribution in SCID mouse liver at 3 mg/kg, po measured at 6 hrs by LC-MS/MS analysis; type: ADME, organism-based; conditions: read-out: Ct
[13] = Drug distribution in SCID mouse liver at 3 mg/kg, po measured at 24 hrs by LC-MS/MS analysis; type: ADME, organism-based; conditions: read-out: Ct
[14] = Drug distribution in SCID mouse spleen at 0.3 mg/kg, po measured at 6 hrs by LC-MS/MS analysis; type: ADME, organism-based; conditions: read-out: Ct
[15] = test system: CWR22R; assay: Antitumor activity against human 22Rv1 cells xenografted in SCID mouse assessed as reduction in BRD2 level in tumor at 1 to 3 mg/kg, po measured at 6 to 24 hrs by Western blotting analysis; type: functional, organism-based; conditions: dose 1-3 mg/kg, time 6-24 hrs
[16] = test system: CWR22R; assay: Antitumor activity against human 22Rv1 cells xenografted in SCID mouse assessed as reduction in BRD4 level in tumor at 1 to 3 mg/kg, po measured at 6 to 24 hrs by Western blotting analysis; type: functional, organism-based; conditions: dose 1-3 mg/kg, time 6-24 hrs
[17] = test system: VCaP; assay: Antitumor activity against human VCaP cells xenografted in SCID mouse assessed as tumor regression at 1 mg/kg, po administered 3 times a week for 4 weeks; type: functional
[18] = test system: VCaP; assay: Antitumor activity against human VCaP cells xenografted in SCID mouse assessed as tumor regression at 3 mg/kg, po administered 3 times a week for 4 weeks; type: functional
[19] = Toxicity in SCID mouse xenografted with human VCaP cells assessed as loss of body weight at 1 to 3 mg/kg, po measured up to 48 days; type: organism-based; conditions: in vivo, 1152 h, dose 1-3 mg/kg, time < 48 day
[20] = test system: VCaP; assay: Antitumor activity against human VCaP cells xenografted in SCID mouse assessed as tumor growth inhibition at 0.3 mg/kg, po administered daily 5 times a week for 4 weeks; type: functional; conditions: 672 h, read-out: TGI
[21] = Toxicity in male BALB/c mouse assessed as effect on body weight loss at 3 to 10 mg/kg, po administered twice a week for 5 to 6 weeks; type: organism-based; conditions: in vivo, dose lower 3 mg/kg, time lower 5 weeks, dose upper 10 mg/kg, time upper 6 weeks
[22] = Drug distribution in Sprague-Dawley rat plasma at 3 mg/kg, po measured at 6 hrs by LC-MS/MS analysis; type: ADME, organism-based
[23] = Drug distribution in Sprague-Dawley rat plasma at 10 mg/kg, po measured at 6 hrs by LC-MS/MS analysis; type: ADME, organism-based
[24] = Drug distribution in Sprague-Dawley rat liver at 3 mg/kg, po measured at 24 hrs by LC-MS/MS analysis; type: ADME, organism-based; conditions: read-out: Ct
[25] = Drug distribution in Sprague-Dawley rat liver at 10 mg/kg, po measured at 24 hrs by LC-MS/MS analysis; type: ADME, organism-based; conditions: read-out: Ct
[26] = Drug distribution in Sprague-Dawley rat spleen at 10 mg/kg, po measured at 6 hrs by LC-MS/MS analysis; type: ADME, organism-based; conditions: read-out: Ct
[27] = Drug distribution in Sprague-Dawley rat heart at 3 mg/kg, po measured at 6 hrs by LC-MS/MS analysis; type: ADME, organism-based; conditions: read-out: Ct
[28] = Drug distribution in Sprague-Dawley rat heart at 10 mg/kg, po measured at 6 hrs by LC-MS/MS analysis; type: ADME, organism-based; conditions: read-out: Ct
[29] = Toxicity in immune-competent Sprague-Dawley rat assessed as change in platelet count at 1 to 10 mg/kg, po administered twice a week for 5 weeks; type: organism-based; conditions: in vivo, 840 h, dose 1-10 mg/kg
[30] = Toxicity in immune-competent Sprague-Dawley rat assessed as change in monocyte at 1 to 10 mg/kg, po administered twice a week for 5 weeks; type: organism-based; conditions: in vivo, 840 h, dose 1-10 mg/kg
[31] = Toxicity in immune-competent Sprague-Dawley rat assessed as change in total protein level at 1 to 10 mg/kg, po administered twice a week for 5 weeks; type: organism-based; conditions: in vivo, 840 h, dose 1-10 mg/kg
[32] = Toxicity in immune-competent Sprague-Dawley rat assessed as change in alanine aminotransferase level at 1 to 10 mg/kg, po administered twice a week for 5 weeks; type: organism-based; conditions: in vivo, 840 h, dose 1-10 mg/kg
[33] = Toxicity in immune-competent Sprague-Dawley rat assessed as change in alkaline phosphatase level at 1 to 10 mg/kg, po administered twice a week for 5 weeks; type: organism-based; conditions: in vivo, 840 h, dose 1-10 mg/kg

`CC(=O)N1CCc2c(c(N3CCCc4cc(-c5cnn(C)c5)c(C(F)F)cc43)nn2[C@H]2CC[C@H](CN3Cc4cc5c(cc4C3)C(=O)N(C3CCC(=O)NC3=O)C5=O)CC2)C1` (stereo partly drawn) showed a pIC50 [1] of 8.43, a pIC50 [2] of 8.34 and a clearance [3] of 34.6 mL/min/kg. It also gave a half-life [4] of 1.3 h, an AUC at 24 h [5] of 4190 ng·h/mL and a half-life [6] of over 2 h. It also gave a pIC50 [7] of under 4.52, a pIC50 [8] of under 5.00 and a pIC50 [9] of under 5.00. For the same molecule, the concentration at 1 h [10] was 155 ng/g, the concentration at 6 h [11] was 86.8 ng/mL and the concentration at 6 h [12] was 1750 ng/mL. The concentration at 24 h [13] was 61.1 ng/mL, the concentration at 6 h [14] was 27.4 ng/mL and the Activity [15] was “Active”. The Activity [16] was “Active”, the Activity [17] was 31% and the Activity [18] was 67%. The Activity [19] was under 7%, the inhibition in vivo at 0.3 mg/kg [20] was 84% and the Activity [21] was “Non-Toxic”. For the same molecule, the concentration at 6 h [22] was 13.1 ng/mL, the concentration at 6 h [23] was 41.4 ng/mL and the concentration at 24 h [24] was 8.4 ng/g. The concentration at 24 h [25] was 20.2 ng/g, the concentration at 6 h [26] was 406 ng/g and the concentration at 6 h [27] was 26.4 ng/g. For the same molecule, the concentration at 6 h [28] was 83 ng/g, the Activity [29] was “Non-Toxic” and the Activity [30] was “Non-Toxic”. The Activity [31] was “Non-Toxic”, the Activity [32] was “Non-Toxic” and the Activity [33] was “Non-Toxic”.

Source: ChEMBL document CHEMBL5543112, “Discovery of CBPD-268 as an Exceptionally Potent and Orally Efficacious CBP/p300 PROTAC Degrader Capable of Achieving Tumor Regression” (J Med Chem, 2024)
